Measurements as given in article PMC8309059, “In Vitro Metabolism Study of Seongsanamide A in Human Liver Microsomes Using Non-Targeted Metabolomics and Feature-Based Molecular Networking” (Pharmaceutics, 2021).
Entries after “also recorded” stand apart in the source; their conditions may differ.

Tests used:
rCYP3A4 = molecular target: T1, rCYP3A4 (Homo sapiens, UniProt P08684); assay: Reaction phenotyping with recombinant cytochrome P450 isoforms: rCYP3A4; format: in vitro ADME; details: 20 pmol/mL rP450, seongsanamide A 1 µM, pH 7.4, 5 min pre-incubation, 15 min at 37 °C with NADPH generating system, LC-MS/MS, n = 3
T1 construct: purchased Corning life sciences (Woburn, MA, USA)
Procedure: (§1) The incubation mixture consisted of 100 mM potassium phosphate buffer (pH 7.4), 20 pmol/mL rCYP1A2, 2A6, 2B6, 2C8, 2C9, 2C19, 2D6, 2E1, 2J2, 3A4 or 3A5 isoforms, and seongsanamide A (1 µM) in a final volume of 100 µL. After a 5 min pre-incubation period at 37 °C, reactions were initiated by the addition of an NADPH generating system and further incubated for 15 min at 37 °C. The reaction was terminated by placing the incubation tubes on ice and by immediately adding 50 µL of acetonitrile. After centrifugation, aliquots of the supernatant were injected into an LC-tandem mass spectrometer (MS/MS). Seongsanamide A and its four metabolites (M1~M4) were separated on a Kinetex XB-C18 column (100 × 2.1 mm, Phenomenex) and analyzed using a Shimadzu LC-MS 8040 MS/MS (Shimadzu, Kyoto, Japan) equipped with a Nexera X2 LC system (Shimadzu) coupled with an electrospray ionization (ESI) interface. LC elution conditions for the analysis of seongsanamide A and its four metabolites were: 10 to 90% B for 0–6 min, 90 to 10% B for 6–6.1 min, and 10% B for 6.1–10 min. Detection of the ions was performed by monitoring the transitions of m/z 836.5 → 565.3 for hydrolyzed seongsanamide A (M1), m/z 1021.5 → 836.5 for monohydroxy-seongsanamide A (M2), m/z 1037.5 → 836.5 for dihydroxy-seongsanamide A (M3), and m/z 1053.5 → 836.5 for tridihydroxy-seongsanamide A (M4). […]

[1] = tested on: nine cytochrome P450 enzymes; assay: Inhibitory potential against nine cytochrome P450 isoforms in human liver microsomes (summary statements); format: in vitro ADME; details: pooled HLMs
Procedure: (§2) The inhibitory potency of seongsanamide A was evaluated by a previously described method with slight modifications in the pooled HLMs. The microsomal incubation was conducted using two cocktail sets containing P450-specific probe substrates; A: phenacetin (CYP1A2), bupropion (CYP2B6), amodiaquine (CYP2C8), tolbutamide (CYP2C9), omeprazole (CYP2C19), and dextromethorphan (CYP2D6); B: coumarin (CYP2A6), chlorzoxazone (CYP2E1), and midazolam (CYP3A). After incubation for 10 min at 37 °C in HLMs in the presence or absence of seongsanamide A (0, 0.5, 2, 5, 20, and 50 µM), the reaction was quenched with cold acetonitrile containing trimipramine as an internal standard. After centrifugation, aliquots of the supernatants were analyzed using LC-MS/MS as described previously. IC50 (concentration of the inhibitor causing 50% inhibition of the original enzyme activity) values were calculated using WinNonlin (Pharsight, Mountain View, CA, USA).

rCYP3A5 = molecular target: T2, rCYP3A5 (Homo sapiens, UniProt P20815); assay: Reaction phenotyping with recombinant cytochrome P450 isoforms: rCYP3A5; format: in vitro ADME; details: 20 pmol/mL rP450, seongsanamide A 1 µM, pH 7.4, 5 min pre-incubation, 15 min at 37 °C with NADPH generating system, LC-MS/MS, n = 3
T2 construct: purchased Corning life sciences (Woburn, MA, USA)
Procedure: as §1

CYP2B6 = molecular target: T3, CYP2B6 (Homo sapiens, UniProt P20813); assay: Inhibition of CYP2B6 activity (bupropion hydroxylation) in pooled human liver microsomes; format: in vitro ADME; details: pooled HLMs, cocktail set A; inhibitor 0, 0.5, 2, 5, 20, 50 µM; 10 min at 37 °C; LC-MS/MS
T3 construct: with slight modifications in the pooled HLMs; tissue XenoTech XTreme 200; host or cells: pooled human liver microsomes
T3 sequence (P20813 1-491): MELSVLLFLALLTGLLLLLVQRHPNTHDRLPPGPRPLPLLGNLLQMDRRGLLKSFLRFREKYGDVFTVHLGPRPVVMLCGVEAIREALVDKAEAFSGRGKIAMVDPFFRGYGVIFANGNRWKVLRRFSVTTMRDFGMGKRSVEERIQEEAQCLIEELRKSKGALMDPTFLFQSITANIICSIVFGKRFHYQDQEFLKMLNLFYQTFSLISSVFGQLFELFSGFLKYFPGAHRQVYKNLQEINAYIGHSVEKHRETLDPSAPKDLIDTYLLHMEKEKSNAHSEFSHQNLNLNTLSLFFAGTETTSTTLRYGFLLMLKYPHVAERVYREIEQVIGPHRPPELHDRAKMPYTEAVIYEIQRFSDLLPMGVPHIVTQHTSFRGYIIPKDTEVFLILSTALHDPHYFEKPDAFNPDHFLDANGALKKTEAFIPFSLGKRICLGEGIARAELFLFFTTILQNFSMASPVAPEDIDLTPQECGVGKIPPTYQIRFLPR
Procedure: as §2

CYP1A2 = molecular target: T4, CYP1A2 (Homo sapiens, UniProt P05177); format: in vitro ADME
T4 construct: with slight modifications in the pooled HLMs; tissue XenoTech XTreme 200; host or cells: pooled human liver microsomes
T4 sequence (P05177 1-516): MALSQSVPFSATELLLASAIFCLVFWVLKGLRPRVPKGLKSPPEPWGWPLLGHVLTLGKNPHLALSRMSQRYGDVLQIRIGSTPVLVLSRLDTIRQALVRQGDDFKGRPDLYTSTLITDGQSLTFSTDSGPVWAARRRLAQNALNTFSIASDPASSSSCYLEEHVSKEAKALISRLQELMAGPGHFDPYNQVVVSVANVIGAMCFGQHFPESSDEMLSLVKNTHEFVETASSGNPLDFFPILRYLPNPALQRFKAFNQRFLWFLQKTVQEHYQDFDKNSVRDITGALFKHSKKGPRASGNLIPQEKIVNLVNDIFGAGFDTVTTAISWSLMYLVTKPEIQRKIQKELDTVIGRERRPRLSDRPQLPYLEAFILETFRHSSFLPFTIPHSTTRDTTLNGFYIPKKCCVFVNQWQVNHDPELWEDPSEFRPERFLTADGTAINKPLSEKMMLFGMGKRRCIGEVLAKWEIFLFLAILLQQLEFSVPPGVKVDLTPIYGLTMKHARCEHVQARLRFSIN
Procedure: as §2

CYP2E1 = molecular target: T5, CYP2E1 (Homo sapiens, UniProt P05181); format: in vitro ADME
T5 construct: with slight modifications in the pooled HLMs; tissue XenoTech XTreme 200; host or cells: pooled human liver microsomes
Procedure: as §2

[2] = tested on: bone marrow-derived mast cells; details: even at 100 µM; cited from earlier work
Description: The genus Bacillus in the marine environment is known to produce structurally diverse peptides, including bicyclic peptides. Seongsanamide A (Figure 1) is one of four bioactive bicyclic depsipeptides isolated from Bacillus safensis KCTC 12796BP, which was obtained from a marine sponge collected from Seongsan on Jeju Island, Korea. It contains a unique isodityrosine moiety which is responsible for its bioactivity.

CYP3A = details: read-out: IC50 against CYP3A; cited from earlier work

T1 sequence (P08684 whole entry, canonical isoform): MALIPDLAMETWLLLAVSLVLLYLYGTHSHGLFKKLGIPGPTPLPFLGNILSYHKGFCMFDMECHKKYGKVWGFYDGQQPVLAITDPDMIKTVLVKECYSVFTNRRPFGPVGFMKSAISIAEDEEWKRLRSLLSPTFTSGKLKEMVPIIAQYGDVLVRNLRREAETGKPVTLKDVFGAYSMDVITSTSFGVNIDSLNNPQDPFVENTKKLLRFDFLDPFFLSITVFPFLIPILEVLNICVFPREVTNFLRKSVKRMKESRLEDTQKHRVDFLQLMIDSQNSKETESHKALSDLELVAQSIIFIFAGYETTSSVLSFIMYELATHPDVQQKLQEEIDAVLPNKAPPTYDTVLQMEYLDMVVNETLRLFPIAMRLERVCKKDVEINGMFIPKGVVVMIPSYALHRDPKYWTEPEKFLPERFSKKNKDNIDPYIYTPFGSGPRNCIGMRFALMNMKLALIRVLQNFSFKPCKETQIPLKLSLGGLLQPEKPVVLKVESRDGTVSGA
T2 sequence (P20815 whole entry, canonical isoform): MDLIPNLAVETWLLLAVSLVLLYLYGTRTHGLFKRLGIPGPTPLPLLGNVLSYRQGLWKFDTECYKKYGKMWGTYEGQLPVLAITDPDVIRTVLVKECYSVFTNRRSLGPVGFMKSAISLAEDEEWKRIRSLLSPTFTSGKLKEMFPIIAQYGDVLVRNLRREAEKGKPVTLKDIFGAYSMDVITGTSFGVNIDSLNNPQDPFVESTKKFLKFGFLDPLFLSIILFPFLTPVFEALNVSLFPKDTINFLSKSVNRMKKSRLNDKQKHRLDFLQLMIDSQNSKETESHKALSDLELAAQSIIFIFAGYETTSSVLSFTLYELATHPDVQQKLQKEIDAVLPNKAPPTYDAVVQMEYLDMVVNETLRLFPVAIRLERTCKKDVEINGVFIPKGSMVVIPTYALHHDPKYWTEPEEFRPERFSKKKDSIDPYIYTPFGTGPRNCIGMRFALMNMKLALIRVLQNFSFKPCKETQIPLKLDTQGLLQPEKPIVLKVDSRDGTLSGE
T5 sequence (P05181 whole entry): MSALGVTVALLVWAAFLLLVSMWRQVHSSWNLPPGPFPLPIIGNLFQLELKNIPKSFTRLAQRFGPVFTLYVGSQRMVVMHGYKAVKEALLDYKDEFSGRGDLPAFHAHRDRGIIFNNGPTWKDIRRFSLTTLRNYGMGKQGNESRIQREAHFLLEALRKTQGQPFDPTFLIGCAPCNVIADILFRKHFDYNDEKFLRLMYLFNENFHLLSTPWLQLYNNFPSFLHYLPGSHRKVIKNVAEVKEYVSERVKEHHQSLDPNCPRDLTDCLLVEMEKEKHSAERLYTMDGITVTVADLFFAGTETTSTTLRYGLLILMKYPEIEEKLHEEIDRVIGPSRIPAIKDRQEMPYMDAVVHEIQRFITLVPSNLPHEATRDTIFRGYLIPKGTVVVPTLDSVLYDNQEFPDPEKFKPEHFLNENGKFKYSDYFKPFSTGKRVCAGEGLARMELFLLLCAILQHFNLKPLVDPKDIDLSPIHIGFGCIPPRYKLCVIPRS

IC50 at 10 min ([1]; human, pooled human liver microsomes, all nine isoforms taken together, read-out: IC50 against the nine cytochrome P450 isoforms (summary bound)) [µM] | Effect on the activities of the other P450 isoforms ([1]; seongsanamide A at 50 µM) | IC50 (CYP2B6) [µM] | IC50, phenacetin O-deethylation (CYP1A2) (CYP1A2) [µM] | IC50, chlorzoxazone 6-hydroxylation (CYP2E1) (CYP2E1) [µM] | Compound | Role of CYP3A4 in formation of metabolites M1-M4 (rCYP3A4) | Role of CYP3A5 in formation of metabolites (rCYP3A5) | Cytotoxicity [2] | IC50 (CYP3A) [µM]
> 10 | did not affect | 21.9 to 25.5 | >50 | >50 | CCC(=O)N[C@@H](CC(C)C)C(=O)N[C@H](C)C(=O)N[C@@H]1Cc2ccc(cc2)Oc2cc(ccc2O)C[C@@H]2NC(=O)[C@H]([C@@H](C)CC)NC(=O)[C@H](CC(C)C)NC(=O)[C@@H](CC(C)C)NC(=O)[C@@H](NC1=O)[C@@H](C)OC2=O [Seongsanamide A] | major metabolic enzymes; also recorded: CYP3A4 played a major role in the formation of M1, M2, M3, and M4 | major metabolic enzymes; also recorded: CYP3A5 was involved in the formation of mono-hydroxyseongsanamide A (M2) | without significant cytotoxicity | 
 |  |  |  |  | CC(C)(C)NC(=O)[C@@H]1C[C@@H]2CCCC[C@@H]2CN1C[C@@H](O)[C@H](Cc1ccccc1)NC(=O)[C@H](CC(N)=O)NC(=O)c1ccc2ccccc2n1 [saquinavir] |  |  |  | 2.14
